The structures appear in SMILES notation. Like-named read-outs stand apart in the source and are kept apart here.

This assay relates to breast tumor cells MDA-MB-436. As to the kind of experiment: MDA-MB-436 cell activity test (CellTiter-Glo, 7 days). It counts as cell-based, human. Conditions: for IC50: 7 days incubation, read-out: IC50 (nM), MDA-MB-436 cell inhibitory activity; for inhibition at 10 µM: MDA-MB-436, MDA-MB-436 cells, read-out: Max inh. % 10 μM. Here is the method:
Breast tumor cells MDA-MB-436 were purchased from ATCC, the culture medium was Leibovitz's L-15+10% FBS, and the cells were cultured in a CO2-free incubator at 37° C. On day 1, the cells in the exponential growth phase were collected, and the cell suspension was adjusted to 4000 cells/135 μL with the culture medium. 135 μL of the cell suspension was added to each well of a 96-well cell culture plate and incubated overnight. On day 2, compounds at different concentrations were added, and the plate was placed in the incubator and incubated for 7 days. After the culture was completed, according to operation instructions for a CellTiter-Glo kit (Promega, G7573), 75 μL of CTG solution, which was already pre-melted and equilibrated to room temperature, was added to each well, and the mixture was uniformly mixed for 2 minutes using a microplate shaker. The plate was placed at room temperature for 10 minutes, and then […] signal values were determined using an Envision2104 plate reader (PerkinElmer). The inhibition rate was calculated using formula (1), where RLUcompound was the readout of the drug treated group, RLUcontrol was the average value of the solvent control group, and RLUblank was the average value of the cell-free well. The IC50 value was calculated using GraphPad Prism software.
For orientation: ATP-based viability assays read luminescence as a measure of living cells.

The mark [1] stands for this setting: Homo sapiens, MDA-MB-436, 168 h, MDA-MB-436 cells.

Consider `CCc1cc2ncc(CN3CCN(c4ccc(C(=O)NC5CC(Nc6ccc7c(c6)C(=O)N([C@@H]6CCC(=O)NC6=O)C7=O)C5)nc4)CC3)cc2[nH]c1=O` (stereo partly drawn) [Compound 42, N-((1r, 3r)-3-((2-(2,6-dioxopiperidin-3-yl)-1,3-dioxoisoindolin-5-yl)amino)cyclobutyl)-5-(4-((7-ethyl-6-oxo-5,6-dihydro-1,5-naphthyridin-3-yl)methyl)piperazin-1-yl)picolinamide], for which the “Max inh. % 10 μM” value (MDA-MB-436 cells, 10 μM) amounted to 86.3%. Besides, the 50% inhibitory concentration (IC50) (MDA-MB-436 cells) was determined as 17 nM.
For the molecule `CCc1cc2ncc(CN3CCN(c4ccc(C(=O)NC5CCN(c6cccc(NC7CCC(=O)NC7=O)c6)CC5)nc4)CC3)cc2[nH]c1=O` (stereo not drawn) [Compound 64], the half-inhibitory concentration (IC50) under setting [1] was 27.9 nM. The inhibition at 10 µM (Homo sapiens, 10 μM) came out at 84.9%.
As for `CCc1cc2ncc(CN3CCN(c4ccc(C(=O)NC5CC(Oc6ccc7c(c6)C(=O)N(C6CCC(=O)NC6=O)C7=O)C5)nc4)CC3)cc2[nH]c1=O` (stereo not drawn) [Compound 60, N-((1s,3s)-3-((2-(2,6-dioxopiperidin-3-yl)-1,3-dioxoisoindolin-5-yl)oxy)cyclobutyl)-5-(4-((7-ethyl-6-oxo-5,6-dihydro-1,5-naphthyridin-3-yl)methyl)piperazin-1-yl)picolinamide], the 50% inhibitory concentration (IC50) under setting [1] was 33 nM. Further, the inhibition at 10 µM (Homo sapiens, 10 μM) was found to be 82%.
On to `CCc1cc2ncc(CN3CCN(c4ccc(NC(=O)c5cnn(C6CCN(c7ccc8c(c7)C(=O)N(C7CCC(=O)NC7=O)C8=O)CC6)c5)nc4)CC3)cc2[nH]c1=O` (stereo not drawn) [Compound 68, 1-(1-(2-(2,6-dioxopiperidin-3-yl)-1,3-dioxoisoindolin-5-yl)piperidin-4-yl)-N-(5-(4-((7-ethyl-6-oxo-5,6-dihydro-1,5-naphthyridin-3-yl)methyl)piperazin-1-yl)pyridin-2-yl)-1H-pyrazole-4-carboxamide], for which the IC50 under setting [1] worked out at 12.3 nM. Also, the inhibition at 10 µM (Homo sapiens, 10 μM) worked out at 88.6%.
Turning to `CCc1cc2ncc(CN3CCN(c4ccc(C(=O)N[C@H]5C[C@@H](Nc6cc7c(cc6F)C(=O)N(C6CCC(=O)NC6=O)C7=O)C5)nc4)CC3)cc2[nH]c1=O` (stereo partly drawn) [Compound 41, N-((1s,3s)-3-((2-(2,6-dioxopiperidin-3-yl)-6-fluoro-1,3-dioxoisoindolin-5-yl)amino)cyclobutyl)-5-(4-((7-ethyl-6-oxo-5,6-dihydro-1,5-naphthyridin-3-yl)methyl)piperazin-1-yl)picolinamide], the IC50 under setting [1] worked out at 11 nM. For the same molecule, the inhibition at 10 µM (Homo sapiens, 10 μM) was determined as 85.7%.
Turning to `Cc1nc2ccc(CN3CCN(c4ccc(C(=O)NC5CCN(c6cccc(N7CCC(=O)NC7=O)c6)CC5)nc4F)CC3)c(F)c2[nH]c1=O` [Compound 71, N-(1-(3-(2,4-dioxotetrahydropyrimidin-1(2H)-yl)phenyl)piperidin-4-yl)-6-fluoro-5-(4-((5-fluoro-2-methyl-3-oxo-3,4-dihydroquinoxalin-6-yl)methyl)piperazin-1-yl)picolinamide], the IC50 under setting [1] stood at 73.4 nM. For the same molecule, the inhibition at 10 µM (Homo sapiens, 10 μM) was 99%.
Regarding `CCc1cc2ncc(CN3CCN(c4ccc(C(=O)NC5CCN(c6ccc7c(c6)C(=O)N(C6CCC(=O)NC6=O)C7)CC5)nc4)CC3)cc2[nH]c1=O` (stereo not drawn) [Compound 48, N-(1-(2-(2,6-dioxopiperidin-3-yl)-3-oxoisoindolin-5-yl)piperidin-4-yl)-5-(4-((7-ethyl-6-oxo-5,6-dihydro-1,5-naphthyridin-3-yl)methyl)piperazin-1-yl)picolinamide], the IC50 under setting [1] came out at 28 nM. In addition, the inhibition at 10 µM (Homo sapiens, 10 μM) is 94.6%.
As to `CCc1cc2ncc(CN3CC=C(c4ccc(C(=O)NC5CCN(c6cccc(N7CCC(=O)NC7=O)c6)CC5)nc4)CC3)cc2[nH]c1=O` [Compound 63, N-(1-(3-(2,4-dioxotetrahydropyrimidin-1(2H)-yl)phenyl)piperidin-4-yl)-1′-((7-ethyl-6-oxo-5,6-dihydro-1,5-naphthyridin-3-yl)methyl)-1′,2′,3′,6′-tetrahydro-[3,4′-bipyridine]-6-carboxamide], the IC50 under setting [1] stood at 16.1 nM. In addition, the inhibition at 10 µM (Homo sapiens, 10 μM) came out at 83.1%.
Regarding `CCc1cc2ncc(CN3CCN(c4ccc(C(=O)NC5CCN(C6CN(c7cccc8c7C(=O)N(C7CCC(=O)NC7=O)C8=O)C6)CC5)nc4)CC3)cc2[nH]c1=O` (stereo not drawn) [Compound 15, N-(1-(1-(2-(2,6-dioxopiperidin-3-yl)-1,3-dioxoisoindolin-4-yl)azetidin-3-yl)piperidin-4-yl)-5-(4-((7-ethyl-6-oxo-5,6-dihydro-1,5-naphthyridin-3-yl)methyl)piperazin-1-yl)picolinamide], the concentration for half-maximal inhibition (IC50) under setting [1] came out at 25 nM. In addition, for the setting “Homo sapiens, 10 μM”, the inhibition at 10 µM is 87.2%.
For `CCc1cc2ncc(CN3CCN(c4ccc(C(=O)N[C@H]5CC[C@@H](Nc6ccc7c(c6)C(=O)N(C6CCC(=O)NC6=O)C7=O)CC5)nc4)CC3)cc2[nH]c1=O` (stereo partly drawn) [Compound 27, N-((1s,4s)-4-((2-(-2,6-dioxopiperidin-3-yl)-1,3-dioxoisoindolin-5-yl)amino)cyclohexyl)-5-(4-((7-ethyl-6-oxo-5,6-dihydro-1,5-naphthyridin-3-yl)methyl)piperazin-1-yl)picolinamide], under setting [1], the 50% inhibitory concentration (IC50) came to 15 nM. Besides, the inhibition at 10 µM (Homo sapiens, 10 μM) came out at 95.8%.
In the case of `CCc1cc2ncc(CN3CCN(c4ccc(C(=O)NC5CN(C(=O)CC67CC8C[C@H](C6)C[C@H](C8)C7)C5)nc4)CC3)cc2[nH]c1=O` [Compound 13, N-(1-(2-((3R,5R)-adamantan-1-yl)acetyl)azetidin-3-yl)-5-(4-((7-ethyl-6-oxo-5,6-dihydro-1,5-naphthyridin-3-yl)methyl)piperazin-1-yl)picolinamide], the IC50 under setting [1] was 5 nM. For the same molecule, the inhibition at 10 µM (Homo sapiens, 10 μM) was 89.7%.
For the molecule `CCc1cc2ncc(CN3CCN(c4ccc(C(=O)N[C@H]5C[C@@H](Nc6ccc7c(c6)C(=O)N(C6CCC(=O)NC6=O)C7=O)C5)nc4)CC3)cc2[nH]c1=O` (stereo partly drawn) [Compound 37, N-((1s,3s)-3-((2-(2,6-dioxopiperidin-3-yl)-1,3-dioxoisoindolin-5-yl)amino)cyclobutyl)-5-(4-((7-ethyl-6-oxo-5,6-dihydro-1,5-naphthyridin-3-yl)methyl)piperazin-1-yl)picolinamide], the IC50 under setting [1] amounted to 23 nM. Further, the inhibition at 10 µM (Homo sapiens, 10 μM) stood at 92.1%.
`CCc1cc2ncc(CN3CC=C(c4ccc(C(=O)NC5CCN(c6cccc(NC7CCC(=O)NC7=O)c6)CC5)nc4)CC3)cc2[nH]c1=O` (stereo not drawn) [Compound 65, N-(1-(3-((2,6-dioxopiperidin-3-yl)amino)phenyl)piperidin-4-yl)-1′-((7-ethyl-6-oxo-5,6-dihydro-1,5-naphthyridin-3-yl)methyl)-1′,2′,3′,6′-tetrahydro-[3,4′-bipyridine]-6-carboxamide]: the half-maximal inhibitory concentration (IC50) under setting [1] was 39.5 nM. Where the note is “Homo sapiens, 10 μM”, the inhibition at 10 µM was 76.8%.
Take `CCc1cc2ncc(CN3CCN(c4ccc(C(=O)NC5CN(c6cccc7c6C(=O)N(C6CCC(=O)NC6=O)C7=O)C5)nc4)CC3)cc2[nH]c1=O` (stereo not drawn) [Compound 16, N-(1-(2-(2,6-dioxopiperidin-3-yl)-1,3-dioxoisoindolin-4-yl)azetidin-3-yl)-5-(4-((7-ethyl-6-oxo-5,6-dihydro-1,5-naphthyridin-3-yl)methyl)piperazin-1-yl)picolinamide]: under setting [1], the half-inhibitory concentration (IC50) turned out to be 15 nM. The inhibition at 10 µM (Homo sapiens, 10 μM) stood at 78.8%.
On to `CCc1cc2ncc(CN3CCN(c4ccc(C(=O)N[C@H]5CCN(c6cc7c(cc6F)C(=O)N(C6CCC(=O)NC6=O)C7=O)C5)nc4)CC3)cc2[nH]c1=O` (stereo partly drawn) [Compound 51, N-((3S)-1-(2-(2,6-dioxopiperidin-3-yl)-6-fluoro-1,3-dioxoisoindolin-5-yl)pyrrolidin-3-yl)-5-(4-((7-ethyl-6-oxo-5,6-dihydro-1,5-naphthyridin-3-yl)methyl)piperazin-1-yl)picolinamide], for which the half-maximal inhibitory concentration (IC50) under setting [1] stood at 19 nM. Further, the inhibition at 10 µM (Homo sapiens, 10 μM) was 97.5%.
Regarding `CCc1cc2ncc(CN3CCN(c4ccc(C(=O)NC5CCN(c6cccc(N7CCC(=O)NC7=O)c6)CC5)nc4)CC3)cc2[nH]c1=O` [Compound 62, N-(1-(3-(2,4-dioxotetrahydropyrimidin-1(2H)-yl)phenyl)piperidin-4-yl)-5-(4-((7-ethyl-6-oxo-5,6-dihydro-1,5-naphthyridin-3-yl)methyl)piperazin-1-yl)picolinamide], the IC50 under setting [1] was found to be 17.9 nM. Besides, the inhibition at 10 µM (Homo sapiens, 10 μM) amounted to 82.9%.
The corresponding values for `CCc1cc2ncc(CN3CC=C(c4ccc(C(=O)N[C@H]5CCN(c6ccc7c(c6)C(=O)N(C6CCC(=O)NC6=O)C7=O)C5)nc4)CC3)cc2[nH]c1=O` (stereo partly drawn) [Compound 53, N-((3S)-1-(2-(2,6-dioxopiperidin-3-yl)-1,3-dioxoisoindolin-5-yl)pyrrolidin-3-yl)-1′-((7-ethyl-6-oxo-5,6-dihydro-1,5-naphthyridin-3-yl)methyl)-1′,2′,3′,6′-tetrahydro-[3,4′-bipyridine]-6-carboxamide] are 58 nM and 98%.
Take `CCc1cc2ncc(CN3CCN(c4ccc(C(=O)NC5CN(c6ccc7c(c6)C(=O)N(C6CCC(=O)NC6=O)C7=O)C5)nc4)CC3)cc2[nH]c1=O` (stereo not drawn) [Compound 11, N-(1-(2-(2,6-dioxopiperidin-3-yl)-1,3-dioxoisoindolin-5-yl)azetidin-3-yl)-5-(4-((7-ethyl-6-oxo-5,6-dihydro-1,5-naphthyridin-3-yl)methyl)piperazin-1-yl)picolinamide]: the IC50 under setting [1] was determined as 2 nM. Also, the inhibition at 10 µM (Homo sapiens, 10 μM) worked out at 99.8%.

As usually defined, the IC50 is the concentration that gives 50% inhibition.

Source of the values: patent publication US20250222116A1, “PARP-1 DEGRADATION AGENT AND USE THEREOF” (XIZANG HAISCO PHARMACEUTICAL CO., LTD., priority 2021, published 2025).
